According to paper PMC11044963, “Probing the CRL4^DCAF12 interactions with MAGEA3 and CCT5 di-Glu C-terminal degrons” (PNAS Nexus, 2024):
“Also recorded” adds a separate entry of the source. Where no end group is shown, it is not given here.

Columns and labels:
[1] = target: T1, DCAF12-DDB1 (Homo sapiens, UniProt Q16531+Q5T6F0); assay: FP direct peptide binding, DDB1–DCAF12 complex; details: for Kd range, FP direct binding: DDB1–DCAF12, FITC-labeled peptide
T1 construct: Despite our attempts to express and purify the full-length (FL) DCAF12 in isolation; made in house; host or cells: Spodoptera frugiperda Sf9 (baculovirus co-expression)
Source text: (§1) To further characterize DCAF12 binding to MAGEA3 and CCT5 degrons, we developed a fluorescence polarization (FP)-based peptide binding and displacement assay in vitro. We designed small N-terminal fluorescein isothiocyanate (FITC)-labeled peptides harboring 11 C-terminal residues of MAGEA3 ([…]) and nine from CCT5 ([…]), both carrying the known -EE degron.
(§2) DCAF12 constructs were subcloned from Mammalian Gene Collection (MGC) stock BC063823 into baculovirus expression vector pFBOH-MHL. For co-expression with DCAF12, DDB1 (MGC stock […]) and DDA1 (MGC stock BC000615) were subcloned into pFBOH-LIC vector lacking any protein tags. For testing DDB1-FL direct binding to peptides on FP assay, the protein was expressed using pFBOH-MHL vector with His-tag. All protein constructs were expressed in Spodoptera frugiperda (Sf9), as previously described ([37]).
(§3) FP-binding assays were performed using 20 mM Tris pH 7.5, 150 mM NaCl, 5% glycerol, 0.5 mM TCEP, and 0.01% Triton buffer. All tested proteins were titrated from an initial 4 µM highest concentration, followed by a factor two serial dilution. N-terminally labeled FITC peptides ([…] for MAGEA3, […] for CCT5, and […] for H3K9A) binding to proteins was tested at 20 nM final concentration. The assay was incubated for 45 min at room temperature, and plates were read using BioTek Synergy 4 (BioTek) plate reader. Prior to displacement assay, proteins at binding Kd concentration were mixed with FITC peptides at 20 nM final concentration. Displacement was evaluated by using a titration curve of unlabeled peptide, with 40 µM as the highest concentration. Buffer, incubation time, and reading conditions followed FP-binding protocol. All FP analyses were performed in triplicates and, at least, two independent experiments. All Kd and KDISP values were calculated using GraphPad Prism version 9.0.

[2] = test system: DCAF12; assay: NanoBRET with full-length proteins, DCAF12; format: cell-based, human; details: HEK293T cells; FL protein
Source text: (§4) To further investigate the DCAF12 interaction with MAGEA3 and CCT5 in cells, we developed a NanoBRET assay, which measures the interaction of […] FL MEAGEA3/CCT5 or C-terminal peptide containing degron sequences ([…]/[…], respectively). When donor and acceptor proteins are in close proximity, the donor excites the acceptor, which then emits fluorescence, allowing for direct measurement of protein–protein interaction in cells.
(§5) HEK293T cells were plated in 96-well plates (2 × 10^4/well) and 4 h later transfected with 0.03 µg/well N-terminally HT-tagged DCAF12 (WT or mutants) or HT alone and 0.001 µg/well N-terminally NL-tagged CCT5 and MAGEA3 (FL or -EE degrons) using X-tremeGene HP transfection reagent (Roche), following the manufacturer's instructions. […] Four hours later, 10 µL of NanoBRET Nano-Glo Substrate solution (8 µL/mL Nano-Glo substrate (Promega) diluted in DMEM/F12 no phenol red, supplemented with 4% FBS, penicillin 100 U/mL, and streptomycin 100 µg/mL) was added, and the signal was read. Donor emission at 450 nm (filter: 450 nm/BP 80 nm) and acceptor emission at 618 nm (filter: 610 nm/LP) were measured within 10 min of substrate addition using CLARIOstar microplate reader (Mandel). […]

[3] = test system: DCAF12 mutants K91A, K108A, R203A, R256A, R344A; assay: NanoBRET with full-length proteins, DCAF12 mutants; format: cell-based, human; details: HEK293T cells; FL protein or degron as stated; DCAF12 mutations vs WT
Source text: Fig. 2. Conserved arginine and lysine residues near DCAF12 central channel participate in MAGEA3 binding in cells. A) DCAF12 electrostatic surface potential analysis showing negatively and positively charged residues colored in red and blue, respectively. On the left, DDB1 contacting surface of DCAF12. On the right, substrate contacting surface with positively charged residues—Arg203, Arg256, and Arg344—highlighted as sticks. Electrostatic potential is shown on a scale of −10 (red) kT/e to 10 (blue). B) Conservation analysis of DCAF12 showing high conservation of the same positively charged residues (represented as sticks) among homologous sequences. Residues were colored on a scale from variable/low conservation (dark teal) to high conservation (magenta). […]
as §5, with “read.” for “read. Donor emission at 450 nm (filter: 450 nm/BP 80 nm) and acceptor emission at 618 nm (filter: 610 nm/LP) were measured within 10 min of substrate addition using CLARIOstar microplate reader (Mandel).”

[4] = test system: DCAF12 R203A/R244A; assay: NanoBRET with -EE degrons, second DCAF12 double arginine mutant; format: cell-based, human; details: HEK293T cells; HT-tagged DCAF12 mutant, NL-tagged degron; vs WT
Source text: as §4
(§6) Therefore, we used site-directed mutagenesis to generate two DCAF12 mutants in the central pocket of the WDR domain: R203A/R256A and R203A/R244A. DCAF12 wild-type (WT) and mutant interactions with MAGEA3 and CCT5 degron peptides were tested in a NanoBRET proximity-based assay (Fig. 2C).
as §5, with “read.” for “read. Donor emission at 450 nm (filter: 450 nm/BP 80 nm) and acceptor emission at 618 nm (filter: 610 nm/LP) were measured within 10 min of substrate addition using CLARIOstar microplate reader (Mandel).”

[5] = test system: DCAF12 R203A/R256A; assay: NanoBRET with -EE degrons, DCAF12 R203A/R256A mutant; format: cell-based, human; details: HEK293T cells; HT-tagged DCAF12 R203A/R256A, NL-tagged degron; vs WT
Source text: as §4, §6
as §5, with “read.” for “read. Donor emission at 450 nm (filter: 450 nm/BP 80 nm) and acceptor emission at 618 nm (filter: 610 nm/LP) were measured within 10 min of substrate addition using CLARIOstar microplate reader (Mandel).”

[6] = target: T2, DCAF12 (Δ1–78) (Homo sapiens, UniProt Q5T6F0); assay: FP direct peptide binding, DCAF12 (Δ1–78); details: FITC-labeled peptide
T2 construct: DCAF12:79-453aa; His6-TEV site ([…]) (N); made in house; host or cells: Spodoptera frugiperda Sf9 (baculovirus)
Source text: as §1, §2
FP-binding assays were performed using 20 mM Tris pH 7.5, 150 mM NaCl, 5% glycerol, 0.5 mM TCEP, and 0.01% Triton buffer. […] The assay was incubated for 45 min at room temperature, and plates were read using BioTek Synergy 4 (BioTek) plate reader. […] Displacement was evaluated by using a titration curve of unlabeled peptide, with 40 µM as the highest concentration. Buffer, incubation time, and reading conditions followed FP-binding protocol. […] All Kd and KDISP values were calculated using GraphPad Prism version 9.0.

[7] = target: T3, biotinylated DCAF12 (Δ1–78) (Homo sapiens, UniProt Q5T6F0); assay: SPR peptide binding, biotinylated DCAF12 (Δ1–78); details: unlabeled peptide, 15 °C, 1:1 Langmuir; for koff: dissociation phase 200 s; for koff / kon: HEPES pH 7.4, 2% DMSO, Fig. 1D, E; for kon: injected 120 s at 30 μL/min
T3 construct: DCAF12:79-453aa; His6 with linker ([…]) (C); made in house; host or cells: Sf9 cells (baculovirus, pFBD-BirA vector)
Description: For SPR experiments, DCAF12 Δ1–78 sequence was subcloned into pFBD-BirA vector, expressed in sf9 cells, and purified as described (Table S2). Biotinylated DCAF12 (Δ1–78) was immobilized to a level of ∼3,200 RU on a Biacore Series S streptavidin chip (Cytiva BR100531) using a Biacore 8K+ (Cytiva). Experiments were performed in a running buffer of 10 mM 4-(2-hydroxyethyl)-1-piperazineethanesulfonic acid (HEPES), pH 7.4, 150 mM NaCl (Cytiva BR-1006-70), 3 mM EDTA (Corning 46-034-CI), 0.005% P20 (Cytiva BR-1000-54), 5% Glycerol (Sigma G5516-1L), and 2% DMSO (Millipore Sigma MX1457-6). CCT5 and MAGEA3 peptides were injected over a period of 120 s at 30 μL/min followed by a dissociation phase of 200 s in an 8-point 2-fold dilution series with a top concentration of 1 μM. All steps were carried out at 15 °C. Reference and buffer-blank subtracted data were analyzed with the Biacore 8K Evaluation Software and fit to a 1:1 Langmuir model to obtain binding kinetics and KD values.

[8] = target: T4, DCAF12-DDB1-DDA1 (Homo sapiens, UniProt Q16531+Q5T6F0+Q9BW61); assay: FP direct peptide binding, DDB1–DCAF12–DDA1 complex; details: for Kd range, FP direct binding: DDB1–DCAF12–DDA1, FITC-labeled peptide
T4 construct: Despite our attempts to express and purify the full-length (FL) DCAF12 in isolation; made in house; host or cells: Spodoptera frugiperda Sf9 (baculovirus co-expression)
Source text: as §1, §2, §3

Substance | effect of DCAF12 mutation on interaction with degron, NanoBRET [4] | effect of DCAF12 mutation on interaction with degron, NanoBRET [5] | Kd range, FP direct binding [1] | Kd range, FP direct binding [6] | koff [7] [s⁻¹] | kon [7] [M⁻¹ s⁻¹] | Kd range, FP direct binding [8] | also measured
ARTKQTARASTGGK [H3K9A, reference compound] | – | – | – | – | – | – | – | FP binding of control peptide lacking -EE ([1]; FITC-labeled peptide 20 nM, protein up to 4 µM, Tris pH 7.5, 45 min, room temperature, DCAF12-DDB1 complex per Fig. S2): did not show any binding
CCT5-FL: full-length T-complex protein 1 subunit epsilon protein | – | – | – | – | – | – | – | BRET signal over negative control [2]: 3.6 fold; engagement with DCAF12 in cells, NanoBRET [2]: low engagement; effect of DCAF12 mutations on interaction, NanoBRET [3]: no changes were observed; also recorded: little to no effect
IRKPGESEE [CCT5 degron] | significantly decreased | significantly decreased | – | – | – | – | – | –
IRKPGESEE [CCT5] | – | – | nanomolar range | nanomolar range | 0.017 | 290000 | nanomolar range | Kd ([7]; 8-point 2-fold dilution from 1 μM, 10 mM HEPES pH 7.4, 150 mM NaCl, 3 mM EDTA, 0.005% P20, 5% glycerol, 2% DMSO, Table S1): 60 nM
LHEWVLREGEE [MAGEA3 degron] | significantly decreased | significantly decreased | – | – | – | – | – | –
LHEWVLREGEE [MAGEA3] | – | – | nanomolar range | nanomolar range | 0.06 | 370000 | nanomolar range | Kd ([8]; FITC-labeled peptide 20 nM, protein 2-fold dilution from 4 µM, 20 mM Tris pH 7.5, 150 mM NaCl, 5% glycerol, 0.5 mM TCEP, 0.01% Triton, 45 min, room temperature, triplicates, at least two independent experiments): 60 nM
